The results in this text go back to PubChem BioAssay AID493102 (Broad Institute, 2011).

The test system of the assay is SK-MEL-5 TRPM1-promoter luciferase reporter, 24 h. The assay can be described thus: reducers of TRPM1 reporter luminescence, concentration series – cell-based, SK-MEL-5, cherry-picked, set 4, MITF inhibitor project, dose response (AID 493102).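 Further: actives lower the luciferase signal so the potency reflects inhibition of reporter expression.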

Consider `O=C(Cn1cc(/C=C\[N+](=O)[O-])c2ccccc21)Nc1ccccc1`, for which the AC50 is 7.46 µM.
As for `Nc1ccc2c(c1)OC1(CCCC1)O2`, the concentration at half-maximal activity (AC50) was 11.2 µM.
The result for `Cc1ccc(C)c(S(=O)(=O)N2CCN(Cc3ccc(O)c4ncccc34)CC2)c1` reads 4.44 µM; that for `COCCN(C(=O)CCl)C(C(=O)NC1CCCCC1)c1ccccc1C` (stereo not given), 17.8 µM; that for `CC1CN(N=Cc2ccc([N+](=O)[O-])o2)C(=N)O1` (stereo not given), 24.1 µM.
The figure for `Cc1ccc(NC(=O)CN(C)C(=O)Cn2ncc(Cl)c(Cl)c2=O)cc1` is 9.16 µM; for `COc1cc(SC)ccc1C(=O)Nc1ccc(Br)cn1` it is 7.36 µM; for `COc1ccccc1-c1cc(C(F)(F)F)nc(S(C)(=O)=O)n1` it is 6.81 µM.
`Cc1ccccc1-n1ncc2c([N+](=O)[O-])cc([N+](=O)[O-])cc21`: the half-maximal activity concentration (AC50) was 8.7 µM.
The result for `CCCC(=O)NC(c1ccc(OC)c(OC)c1)c1cc(Cl)c2cccnc2c1O` (stereo not given) reads 9.06 µM; that for `CCOc1cc(/C=C\[N+](=O)[O-])ccc1OCC(=O)N1CCOCC1`, 7.35 µM; that for `COc1cccc(/C=N/Nc2ncnc3c2ncn3Cc2ccccc2)c1O`, 4.6 µM.
The figure for `Cc1cc(C(=O)COc2cccnc2[N+](=O)[O-])c(C)n1-c1ccccc1` is 1.48 µM.
The figure for `O=C(CCl)Nc1cccc(S(=O)(=O)NC2=NCCCCC2)c1` is 7.85 µM; for `Cc1cc(C)n(-c2ccc(C(=O)Nc3ccc(C)c(S(=O)(=O)N4CCOCC4)c3)cc2)n1` it is 4.54 µM.
`O=C(Nc1ccccc1N1CCN(C(=O)c2ccccc2)CC1)c1ccc([N+](=O)[O-])o1`: the AC50 was 11.4 µM.
For `COc1ccccc1NC(=O)c1nc(S(=O)(=O)Cc2ccccc2)ncc1Cl`, the concentration at half-maximal activity (AC50) is 8.91 µM.
The figure for `CC1=C/C(=N\NC(=S)Nc2cccnc2)CC(C)(C)C1` is 11 µM; for `N#Cc1cc2c(nc1SC1CC(=O)N(c3ccccc3)C1=O)CCC2` (stereo not given) it is 1.78 µM; for `Cc1ccc(NC(=O)/C=C/c2ccc([N+](=O)[O-])s2)c(C)c1` it is 4.64 µM.
The figure for `COCCn1c(C)cc(C(=O)CSc2nnc(C)s2)c1C` is 3.04 µM; for `COc1ccc(C(=O)/C=C/C(=O)N(CC(=O)NC2CCCCC2)Cc2ccc(F)cc2)c(O)c1` it is 5.45 µM; for `Cc1cc(C(=O)CN2C(=O)c3ccccc3S2(=O)=O)c(C)n1-c1ccccc1` it is 3.45 µM.
The result for `COc1ccc(-c2nn(-c3ccccc3)cc2/C=N/N=C(N)N)cc1OC` reads 14.6 µM.
`O=C(Nc1ccc2oc(-c3cccnc3)nc2c1)c1ccc([N+](=O)[O-])o1`: the AC50 was 14.2 µM.
For `O=C(N/N=C\c1ccc([N+](=O)[O-])o1)C1COc2ccccc2O1` (stereo not given), the half-maximal activity concentration (AC50) is 7.21 µM.
The result for `CCOc1ccc(NC(=O)CCC(=O)N/N=C/c2ccc([N+](=O)[O-])s2)cc1` reads 6.21 µM; that for `COc1ccc2cc3cc(C(=O)NCCc4ccc(OC)c(OC)c4)oc3nc2c1`, 16.2 µM; that for `O=C(N/N=C\c1cc(Cl)ccc1O)c1ccc(S(=O)(=O)N2CCCCC2)cc1`, 2.81 µM.
For the molecule `Cc1ccc(NC(=O)c2cc(N3C(=O)C=CC3=O)ccc2N2CCOCC2)cc1`, the AC50 was 11.6 µM.
The figure for `Cc1cc(C)c[n+](C2=C([O-])c3ccccc3C(=O)/C2=N\S(=O)(=O)c2cccs2)c1` is 2.95 µM; for `COc1ccc(C(=O)/C=C/C(=O)N(CC(=O)NC2CCCCC2)Cc2cccs2)c(O)c1` it is 5.53 µM; for `COC(=O)C1=C(CN2CCCc3ccccc32)NC(=O)NC1c1ccc(F)cc1` (stereo not given) it is 2.16 µM.
Take `CCOc1ccc(C(=O)Nc2cccc(C(=O)O)c2C)cc1Cl`: the AC50 is 8.56 µM.
As for `Cc1cc(C(=O)CSc2nnc3ccccn23)c(C)n1-c1ccccc1`, the half-maximal activity concentration (AC50) is 2.08 µM.
`O=C(CCl)Nc1cccc(Oc2ccccc2)c1`: the AC50 is 8.07 µM.
The figure for `O=C(CNc1ccc2ccccc2c1)N/N=C/c1ccc([N+](=O)[O-])o1` is 4.95 µM; for `C=CCn1c(C)cc(C(=O)CN2C(=O)c3ccccc3S2(=O)=O)c1C` it is 0.666 µM.
Take `COc1ccc2nc(C)cc(SCC(=O)N/N=C/c3ccc(O)cc3O)c2c1`: the AC50 was 10.1 µM.
The result for `O=C(N/N=C/c1ccc([N+](=O)[O-])o1)c1cc2ccccc2o1` reads 5.99 µM; that for `COc1ccc(-n2c(C)cc(C(=O)CCl)c2C)cc1`, 6.44 µM; that for `CC(NC(=O)C12CC3CC(CC(C3)C1)C2)C(=O)NN=Cc1ccc([N+](=O)[O-])o1` (stereo not given), 7.79 µM.
The figure for `CN1CCN(c2ccccc2NC(=O)c2ccc([N+](=O)[O-])o2)CC1` is 4.95 µM; for `Cc1onc(-c2ccccc2)c1C(=O)N/N=C/c1ccc([N+](=O)[O-])s1` it is 5.35 µM.
`Cc1ccccc1-c1nc(-c2ccccn2)no1`: the concentration at half-maximal activity (AC50) is 4.18 µM.
On to `C=CCn1c(C)cc(C(=O)Cn2ncc(Cl)c(Cl)c2=O)c1C`, for which the AC50 was 9.97 µM.
The figure for `O=C(COc1ccc(Cl)cc1Cl)Nc1ccccn1` is 2.19 µM; for `COc1cc2c(c(OC)c1OC)-c1ccc(N(C)CC(OC)OC)c(=O)cc1[C@@H](NC(C)=O)CC2` it is 2.04 µM.
The result for `O=C1C(Cl)=C(Nc2ccccc2)C(=O)c2ccccc21` reads 2.88 µM; that for `CCOc1cc(/C=C2/NC(=S)NC2=O)ccc1OCc1ccc([N+](=O)[O-])cc1`, 8.19 µM.
Regarding `CCc1ccc(-c2cc(C(=O)Nn3cnnc3)c3ccccc3n2)cc1`, the AC50 was 12.5 µM.
The result for `Nc1ccc(-c2nc3ccc(C(=O)O)cc3s2)cc1` reads 0.866 µM.
As to `CN(C)c1ccc(/C=C2\SC(=O)N(CCc3nnc(N)s3)C2=O)cc1`, the AC50 is 2.54 µM.
The figure for `O=[N+]([O-])c1cccc2c(N3CCCC3)ccnc12` is 2.47 µM; for `CCCCn1c(=O)[nH]c(=O)c2c1nc(Cn1ncc(Cl)c(Cl)c1=O)n2CCC` it is 8.12 µM.
On to `OC(CNCC(c1ccc(Cl)cc1Cl)c1c[nH]c2ccccc12)c1ccccc1` (stereo not given), for which the half-maximal activity concentration (AC50) was 14.7 µM.
Consider `O=C(Nc1ccc(N2CCCC2)c(Cl)c1)c1ccc([N+](=O)[O-])o1`, for which the concentration at half-maximal activity (AC50) is 11.1 µM.
The figure for `O=C(CSCC(=O)Nc1ccccc1)N/N=C/c1c(O)ccc2ccccc12` is 3.33 µM; for `Cc1cccc(/C=C2/Sc3ccc(C(=O)NCCN4CCCC4)cc3NC2=O)c1` it is 18.4 µM; for `Cc1cc(-n2c(C)cc(C(=O)CCl)c2C)no1` it is 5.5 µM.
The figure for `O=C(CCCN1C(=O)S/C(=C\c2ccccc2)C1=O)NNC(=O)c1ccccc1O` is 33.9 µM; for `CC1(C)Cc2ccccc2C2=NNC(=O)C2=N1` it is 3.62 µM.
The result for `C=C1C(=O)O[C@@]23[C@H]1CC[C@@H](C)[C@@H]2CC[C@@]1(C)O[C@@H]31` reads 5.22 µM; that for `Cc1[nH]nc2nc(SCC(=O)NCCC3=CCCCC3)n(-c3ccc(Br)cc3)c(=N)c12`, 2.46 µM.
As for `Cc1ccc(NC(=O)CCC(=O)N/N=C/c2ccc([N+](=O)[O-])o2)cc1C`, the half-maximal activity concentration (AC50) is 6.25 µM.
`O=C(CCCc1ccccc1)Nc1cccc(C(=O)O)c1`: the concentration at half-maximal activity (AC50) is 4.42 µM.
The result for `COc1ccc(C(=O)/C=C/C(=O)N(CC(=O)NC2CCCCC2)Cc2ccccc2)c(O)c1` reads 5.24 µM; that for `O=S(=O)(c1ccc(Cl)cc1)N1CCN(Cc2ccc(O)c3ncccc23)CC1`, 4.37 µM; that for `CS(=O)(=O)c1ncc(Cl)c(C(=O)Nc2ccc(N3CCOCC3)cc2)n1`, 22.8 µM.
The figure for `CC(Oc1cccc(Br)c1)C(=O)NNC(=O)c1ccccn1` (stereo not given) is 7.18 µM.
